Patent publication US20190255080A1, “METHOD OF REDUCING THYROID-ASSOCIATED SIDE EFFECTS” (Viking Therapeutics, Inc., priority 2016, published 2019)
“Also recorded” adds a separate entry of the source.

What was measured:
beagle dogs [1] = assay: Alternative dosing study in dogs: total plasma cholesterol levels; type: in vivo
Method: (§1) The objective of the study was to determine the effects of oral administration of Compound 2 once-daily for 14 days followed by alternate day dosing for 14 days on plasma cholesterol levels and indicators of thyroid function in beagle dogs. Compound 2 was formulated with Lutrol F68 NF (Poloxomer 188) and carboxymethylcellulose (CMC; sodium salt/high viscosity) and was administered as a suspension in 0.5% CMC/1% Lutrol in deionized water. Twelve beagle dogs (9-15 kg) were randomized into 6 dosing groups (1 male and 1 female/group) and gavaged once-daily with a 0.5% CMC/1% Lutrol F68 suspension of Compound 2 at doses of […] or with vehicle for 14 days. At the end of the treatment cycle (Cycle 1), the dogs were washed out for 4 weeks and then entered into a second 14-day treatment cycle. Cycle 2 employed the same dosing paradigm as Cycle 1, but animals were randomized to Cycle 2 in such a way that the combined dosing groups from the two cycles consisted of 4 different animals (2 males, 2 females) each. At the conclusion of Cycle 2, dosing was continued on alternate days for an additional 14-day period (Cycle 2 Extension). Blood samples were collected at baseline and appropriate time intervals thereafter and analyzed for total plasma cholesterol levels, serum levels of total T4 (tT4), free T4 (fT4), total T3 (tT3), free T3 (fT3), and thyroid stimulating hormone (TSH).

beagle dogs [2] = assay: Alternative dosing study in dogs: indicators of thyroid function (serum tT4, fT4, tT3, fT3, TSH); type: in vivo
Method: as §1

[3] = Previously determined no observable adverse effect level (NOAEL) and exposure at it; settings: in vivo
Method: (§2) The maximum cumulative weekly dose will not exceed 40 mg in this current clinical study. […] The projected systemic exposure (AUC0-168 hr [i.e., exposure during one week]) of the active metabolite at the 40 mg once weekly dose is 5570 ng*hr/mL. […] Projected exposures in humans receiving 40 mg once weekly is therefore estimated to be about 3-fold lower than exposures at the previously determined 5 mg/kg/day no observable adverse effect level (NOAEL).

[4] = tested on: patients with primary hypercholesterolemia and non-alcoholic fatty liver disease; assay: Phase 1b study: LDL-C and triglycerides over 4-week treatment period; type: in vivo, humans; settings: 5 mg daily and up to 40 mg once weekly
Method: A phase 1b, randomized, double-blind, placebo-controlled, study is carried out to assess the efficacy, safety, and tolerability of Compound 1, administered for 12 weeks followed by a 4-week off-drug phase, in patients with primary hypercholesterolemia and non-alcoholic fatty liver disease.
as §2
Approximately 32 subjects are enrolled and randomly assigned in a 6:2 ratio (Compound 1:placebo) to one of the following treatment groups: (1) 5 mg Compound 1 or Placebo once daily (2) 20 mg Compound 1 or Placebo once weekly (3) 40 mg Compound 1 or Placebo once weekly (4) 10 mg Compound 1 or Placebo every other day The primary endpoint is the percent change in LDL-C from the baseline visit to Day 29. Either a 20% decrease in LDL-C or a lowering of LDL-C to within the normal range is considered clinically meaningful. Subjects are also monitored for adverse effects and/or clinically relevant changes in health status or results from laboratory analyses. […]

[5] = 0.3 mg/kg/day, once-daily oral, 14 days
[6] = 10 mg/kg/day (highest dose), once-daily oral, 14 days
[7] = alternate day dosing after once-daily treatment

SMILES	effects on total plasma cholesterol levels (beagle dogs [1]; 0.1 mg/kg/day (lowest dose), once-daily oral)	average reduction of total plasma cholesterol levels on Day 15 (beagle dogs [1]; [5]) [mg/dL]	average reduction of total plasma cholesterol levels on Day 15 from baseline (beagle dogs [1]; [5]) [%]	average reduction of total plasma cholesterol levels on Day 15 (beagle dogs [1]; [6]) [mg/dL]	average reduction of total plasma cholesterol levels on Day 15 from baseline (beagle dogs [1]; [6]) [%]	total plasma cholesterol levels during alternate day dosing (beagle dogs [1]; Cycle 2 Extension, alternate day dosing for 14 days after 14 days once-daily)	reductions of average total plasma cholesterol levels from baseline (beagle dogs [1]; once-daily oral, 14 days, 0.1-10 mg/kg)	levels of fT4 during Cycle 2 Extension (beagle dogs [2]; [7])	levels of tT4 during Cycle 2 Extension (beagle dogs [2]; [7])	recovery of TSH levels during Cycle 2 Extension (beagle dogs [2]; [7])	recovery of fT3 levels during Cycle 2 Extension (beagle dogs [2]; [7])	effects on serum TSH levels on Day 8 (beagle dogs [2]; once-daily treatment, Day 8)	TSH levels reduced from baseline on Day 15 (beagle dogs [2]; once-daily treatment, Day 15, non-dose-dependent)	changes in tT3 levels relative to baseline levels (beagle dogs [2]; once-daily treatment, compared with vehicle-treated group)	reductions of serum tT4 from baseline levels (beagle dogs [2]; once-daily treatment, dose-dependent, across dose groups)	reductions of fT4 from baseline levels (beagle dogs [2]; once-daily treatment, dose-related, across dose groups)	reductions of fT3 from baseline levels (beagle dogs [2]; once-daily treatment, non-dose-dependent, across dose groups)	NOAEL [3] [mg/kg/day]	LDL-C [4]	triglycerides [4]
Cc1cc(OC[P@]2(=O)OC[C@@H](c3cccc(Cl)c3)CO2)cc(C)c1Cc1ccc(O)c(C(C)C)c1 [Compound 2]	minimal effects	-28	~22	-71	~47	remained reduced relative to vehicle-treated animals to a similar or greater extent than observed after once-daily dosing; also recorded: did not compromise cholesterol lowering efficacy	up to 47%	gradually recovered to levels that approached those of vehicle-treated animals	gradually recovered to levels that approached those of vehicle-treated animals	more variable recovery	more variable recovery	variable, with full suppression in some animals and up to 4-fold elevations in others	6-27%	no meaningful changes; also recorded: unaffected	20-54%	8-39%	15-32%	–	–	–
Cc1cc(OCP(=O)(OCOC(=O)C(C)(C)C)OCOC(=O)C(C)(C)C)cc(C)c1Cc1ccc(O)c(Cc2ccccc2)c1 [Compound 1]	–	–	–	–	–	–	–	–	–	–	–	–	–	–	–	–	–	5	dose and/or schedule dependent decreases	dose and/or schedule dependent decreases
